Patent US20050180922A1, “Block co-polymer worm micelles and methods of use therefor” (priority 2004, published 2005)

How the values were obtained:
[1] = Taxol loading into worm micelle core (HPLC); assay type: physicochemical; conditions: confirmed by HPLC
Protocol: In vitro assays. Drug delivery with liposomes entails loading either hydrophilic drugs or nucleic acids into the interior of the assembly (Wagner et al., Proc. Nat'l Acad. Sci. USA 89:7934 (1992)), or hydrophobic drugs into the lipid bilayer (Wenk et al., J. Pharm. Sci. 85:228 (1996)). The worm micelles in this study were loaded with the drug taxol, one of a variety of hydrophobic drugs available for killing tumor cells. Taxol binds to, and toxically stabilizes, microtubules at 1-10 nM (Gloushankova et al., Proc. Nat'l. Acad. Sci. USA 91:8597 (1994)).

microtubules = conditions: cited from earlier work

CC(=O)O[C@H]1C(=O)[C@@]2(C)[C@H]([C@H](OC(=O)c3ccccc3)[C@]3(O)C[C@H](OC(=O)[C@H](O)[C@@H](NC(=O)c4ccccc4)c4ccccc4)C(C)=C1C3(C)C)[C@]1(OC(C)=O)CO[C@@H]1C[C@@H]2O [taxol, paclitaxel]
taxol partition into hydrophobic core [1]: one molecule of taxol partitions into the hydrophobic core per ten copolymers
concentration that binds and toxically stabilizes microtubules (microtubules): 1 to 10 nM
